Measurements as given in ChEMBL document CHEMBL3132769, “Fragment growing to retain or alter the selectivity of anchored kinase hinge-binding fragments” (Medchemcomm, 2014).

Key:
[1] = molecular target: T1, Serine/threonine-protein kinase D1 (Homo sapiens) (UniProt Q15139); experiment: Inhibition of human full length PKD1 expressed in baculovirus assessed as substrate phosphorylation using fluorescence-labelled peptides as substrate at 420 uM after 90 mins by microfluidic peptide phosphorylation assay
T1 sequence (whole entry): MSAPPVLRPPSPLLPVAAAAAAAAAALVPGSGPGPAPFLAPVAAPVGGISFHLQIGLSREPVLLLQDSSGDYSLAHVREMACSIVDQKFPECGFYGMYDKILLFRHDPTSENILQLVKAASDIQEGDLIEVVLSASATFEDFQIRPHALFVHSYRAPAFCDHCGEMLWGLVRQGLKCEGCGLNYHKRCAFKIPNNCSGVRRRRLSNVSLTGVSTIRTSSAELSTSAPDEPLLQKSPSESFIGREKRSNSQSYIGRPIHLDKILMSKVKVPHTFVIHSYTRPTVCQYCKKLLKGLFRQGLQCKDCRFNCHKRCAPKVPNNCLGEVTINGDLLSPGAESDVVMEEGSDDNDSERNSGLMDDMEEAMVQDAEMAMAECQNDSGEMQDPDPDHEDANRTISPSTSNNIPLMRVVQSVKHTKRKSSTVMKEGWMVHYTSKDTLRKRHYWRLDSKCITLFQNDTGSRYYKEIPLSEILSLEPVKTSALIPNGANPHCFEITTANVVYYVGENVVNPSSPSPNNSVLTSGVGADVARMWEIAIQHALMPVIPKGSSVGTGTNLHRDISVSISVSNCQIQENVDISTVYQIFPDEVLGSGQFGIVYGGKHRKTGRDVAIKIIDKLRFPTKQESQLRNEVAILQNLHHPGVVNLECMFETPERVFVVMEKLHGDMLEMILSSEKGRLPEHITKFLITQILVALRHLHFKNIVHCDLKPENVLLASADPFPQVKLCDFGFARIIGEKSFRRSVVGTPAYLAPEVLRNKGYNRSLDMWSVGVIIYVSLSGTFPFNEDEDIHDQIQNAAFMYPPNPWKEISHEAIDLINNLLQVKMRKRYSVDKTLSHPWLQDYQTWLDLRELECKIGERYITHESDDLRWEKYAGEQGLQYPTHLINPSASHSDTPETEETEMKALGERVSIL

[2] = molecular target: T2, Mitogen-activated protein kinase 13 (Homo sapiens) (UniProt O15264); experiment: Inhibition of human full length p38 delta expressed in Escherichia coli cell assessed as substrate phosphorylation using fluorescence-labelled peptides as substrate at 0.1 uM after 90 mins by microfluidic peptide phosphorylation assay
T2 sequence (whole entry): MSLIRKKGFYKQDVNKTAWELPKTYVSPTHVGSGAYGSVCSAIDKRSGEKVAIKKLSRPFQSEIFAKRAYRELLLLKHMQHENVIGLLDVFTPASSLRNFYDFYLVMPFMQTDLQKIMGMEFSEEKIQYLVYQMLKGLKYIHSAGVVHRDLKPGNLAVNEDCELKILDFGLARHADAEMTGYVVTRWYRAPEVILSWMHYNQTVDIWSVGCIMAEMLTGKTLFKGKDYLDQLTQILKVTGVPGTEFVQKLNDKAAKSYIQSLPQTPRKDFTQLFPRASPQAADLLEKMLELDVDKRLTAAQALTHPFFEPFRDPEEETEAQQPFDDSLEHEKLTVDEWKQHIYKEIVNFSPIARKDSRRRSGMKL

[3] = molecular target: T3, Serine/threonine-protein kinase BRSK1 (Homo sapiens) (UniProt Q8TDC3); experiment: Inhibition of human full length BRSK1 expressed in baculovirus assessed as substrate phosphorylation using fluorescence-labelled peptides as substrate at 8 uM after 90 mins by microfluidic peptide phosphorylation assay
T3 sequence (whole entry): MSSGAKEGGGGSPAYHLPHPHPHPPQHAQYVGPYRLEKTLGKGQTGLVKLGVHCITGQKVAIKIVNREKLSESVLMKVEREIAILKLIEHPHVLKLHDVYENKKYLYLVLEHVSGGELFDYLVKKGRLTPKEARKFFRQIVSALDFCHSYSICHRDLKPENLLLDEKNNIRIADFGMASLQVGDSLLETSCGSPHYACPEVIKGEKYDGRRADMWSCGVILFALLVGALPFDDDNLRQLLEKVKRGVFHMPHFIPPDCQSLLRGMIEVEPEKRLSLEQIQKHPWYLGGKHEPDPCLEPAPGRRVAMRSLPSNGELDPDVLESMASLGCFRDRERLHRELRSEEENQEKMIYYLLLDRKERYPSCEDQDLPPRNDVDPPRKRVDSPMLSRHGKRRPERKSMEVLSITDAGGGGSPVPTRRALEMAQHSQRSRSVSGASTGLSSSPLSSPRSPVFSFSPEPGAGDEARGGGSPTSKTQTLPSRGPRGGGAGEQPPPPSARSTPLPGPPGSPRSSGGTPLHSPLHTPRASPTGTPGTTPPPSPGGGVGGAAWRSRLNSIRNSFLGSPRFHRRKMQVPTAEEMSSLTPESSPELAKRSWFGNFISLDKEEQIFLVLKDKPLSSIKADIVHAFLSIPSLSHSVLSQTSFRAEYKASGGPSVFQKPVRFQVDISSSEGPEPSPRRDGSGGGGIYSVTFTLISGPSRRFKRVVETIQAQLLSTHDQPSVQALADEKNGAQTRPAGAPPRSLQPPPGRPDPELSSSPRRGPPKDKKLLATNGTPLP

[4] = molecular target: T4, Serine/threonine-protein kinase DCLK2 (Homo sapiens) (UniProt Q8N568); experiment: Inhibition of human full length DCAMKL2 expressed in baculovirus assessed as substrate phosphorylation using fluorescence-labelled peptides as substrate at 70 uM after 90 mins by microfluidic peptide phosphorylation assay
T4 sequence (whole entry): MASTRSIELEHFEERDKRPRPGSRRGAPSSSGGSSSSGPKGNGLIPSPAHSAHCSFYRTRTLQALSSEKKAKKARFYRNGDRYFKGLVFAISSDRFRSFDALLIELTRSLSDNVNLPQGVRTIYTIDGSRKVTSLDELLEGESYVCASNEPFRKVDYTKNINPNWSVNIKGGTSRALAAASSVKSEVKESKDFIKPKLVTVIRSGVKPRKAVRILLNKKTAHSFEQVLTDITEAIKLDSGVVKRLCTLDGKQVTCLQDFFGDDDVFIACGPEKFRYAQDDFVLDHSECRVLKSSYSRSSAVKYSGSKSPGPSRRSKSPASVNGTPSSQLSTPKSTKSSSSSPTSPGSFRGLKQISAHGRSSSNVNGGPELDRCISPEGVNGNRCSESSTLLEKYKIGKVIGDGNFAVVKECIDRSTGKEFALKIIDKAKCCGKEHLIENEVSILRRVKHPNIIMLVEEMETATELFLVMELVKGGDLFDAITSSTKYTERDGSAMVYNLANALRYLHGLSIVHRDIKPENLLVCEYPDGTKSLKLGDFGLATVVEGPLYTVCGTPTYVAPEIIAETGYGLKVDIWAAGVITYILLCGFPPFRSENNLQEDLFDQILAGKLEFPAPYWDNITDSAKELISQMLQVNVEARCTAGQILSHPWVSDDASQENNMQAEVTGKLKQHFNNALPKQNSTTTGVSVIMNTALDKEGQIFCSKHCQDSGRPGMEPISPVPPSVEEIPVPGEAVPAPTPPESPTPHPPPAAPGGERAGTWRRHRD

With `c1nc(N2CCOCC2)c2nc[nH]c2n1` the inhibition [1] was 70%.
`C[C@H](CN(C)C)Oc1nc(Nc2cc3cccc(Cl)c3cn2)cnc1C#N` showed an inhibition [2] of 2.5%.
`NCC1CCN(c2ncnc3[nH]ccc23)CC1` was tested, and the inhibition [3] was 56.5%.
In the case of `CNCc1ccc(-c2ncnc3[nH]cnc23)cc1`, the inhibition [4] is reported as 20.5%.
